Experimental data: patent publication US10336761B2, “TGFβ receptor antagonist” (BRISTOL-MYERS SQUIBB COMPANY, priority 2015, dated 2019)

Each compound was assayed against HIS-TGFβR1 T204D (Homo sapiens (Human), UniProt P36897, T204D) (assay: HTRF probe-displacement assay, HIS-TGFβR1 T204D). Conditions: 1 hour at room temperature.
Assay type: binding

HIS-TGFβR1 T204D, sequence (P36897 34-503 T204D): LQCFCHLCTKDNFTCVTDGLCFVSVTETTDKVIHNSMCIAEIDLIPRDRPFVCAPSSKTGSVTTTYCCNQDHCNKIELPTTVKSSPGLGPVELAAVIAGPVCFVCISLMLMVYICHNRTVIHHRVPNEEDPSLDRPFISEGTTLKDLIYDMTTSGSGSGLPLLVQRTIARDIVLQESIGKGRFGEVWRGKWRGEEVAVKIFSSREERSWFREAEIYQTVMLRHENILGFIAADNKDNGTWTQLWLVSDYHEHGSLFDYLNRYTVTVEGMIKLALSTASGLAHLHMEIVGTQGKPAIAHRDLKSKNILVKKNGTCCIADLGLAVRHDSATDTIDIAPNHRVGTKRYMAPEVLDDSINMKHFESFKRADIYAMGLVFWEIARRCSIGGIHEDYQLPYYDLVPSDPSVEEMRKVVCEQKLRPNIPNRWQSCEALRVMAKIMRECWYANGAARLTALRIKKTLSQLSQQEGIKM

Row | IC50 [nM] | Structure (SMILES)
1 | 210 | CC(C)(C)OC(=O)N1CCN(CCNC(=O)c2cnccc2Nc2nc(-c3ccccn3)nn3cccc23)CC1 [Example 145, tert-butyl 4-{2-[(4-{[2-(pyridin-2-yl)pyrrolo[2,1-f][1,2,4]triazin-4-yl]amino}pyridin-3-yl)formamido]ethyl}piperazine-1-carboxylate]
2 | 0.46 | Fc1cnccc1Nc1nc(-c2ccc(F)c(C(F)F)n2)nn2cccc12 [Example 66, N-{2-[6-(difluoromethyl)-5-fluoropyridin-2-yl]pyrrolo[2,1-f][1,2,4]triazin-4-yl}-3-fluoropyridin-4-amine]
3 | 87 | COc1cccc(-c2nc(Nc3ccncc3F)c3ccc(F)n3n2)n1 [Example 41, 3-fluoro-N-[7-fluoro-2-(6-methoxypyridin-2-yl)pyrrolo[2,1-f][1,2,4]triazin-4-yl]pyridin-4-amine]
4 | 0.7 | OC1(CCNCc2ccn3nc(-c4ccccn4)nc(Nc4ccncc4F)c23)CCCC1 [Example 240, 1-{2-[({4-[(3-fluoropyridin-4-yl)amino]-2-(pyridin-2-yl)pyrrolo[2,1-f][1,2,4]triazin-5-yl}methyl)amino]ethyl}cyclopentan-1-ol]
5 | 33 | Cc1cccc(-c2nc(Nc3ccncc3C(=O)NCC3(O)CCN(C)CC3)c3cccn3n2)n1 [Example 154, N-[(4-hydroxy-1-methylpiperidin-4-yl)methyl]-4-{[2-(6-methylpyridin-2-yl)pyrrolo[2,1-f][1,2,4]triazin-4-yl]amino}pyridine-3-carboxamide]
6 | 2.4 | Fc1cnccc1Nc1nc(-c2ccccn2)nn2ccc(CNC3CCCNC3)c12 (centres unmarked) [Example 267, 3-fluoro-N-(5-{[(piperidin-3-yl)amino]methyl}-2-(pyridin-2-yl)pyrrolo[2,1-f][1,2,4]triazin-4-yl)pyridin-4-amine]
7 | 4400 | CC(C)(O)CNC(=O)c1cc(Nc2nc(-c3cccc(C(F)(F)F)n3)nn3cccc23)ccn1 [Example 324, N-(2-hydroxy-2-methylpropyl)-4-({2-[6-(trifluoromethyl)pyridin-2-yl]pyrrolo[2,1-f][1,2,4]triazin-4-yl}amino)pyridine-2-carboxamide]
8 | 49 | O=C(NCCCN1CCCC1=O)c1cnccc1Nc1nc(-c2ccccn2)nn2cccc12 [Example 149, N-[3-(2-oxopyrrolidin-1-yl)propyl]-4-{[2-(pyridin-2-yl)pyrrolo[2,1-f][1,2,4]triazin-4-yl]amino}pyridine-3-carboxamide]
9 | 150 | Fc1cnccc1Nc1nc(-c2cc(Cl)ccn2)nn2cccc12 [Example 63, N-[2-(4-chloropyridin-2-yl)pyrrolo[2,1-f][1,2,4]triazin-4-yl]-3-fluoropyridin-4-amine]
10 | 3.5 | Cc1cccc(-c2nc(Nc3ccncc3C(=O)NCCCN3CCN(C)CC3)c3cccn3n2)n1 [Example 160, N-[3-(4-methylpiperazin-1-yl)propyl]-4-{[2-(6-methylpyridin-2-yl)pyrrolo[2,1-f][1,2,4]triazin-4-yl]amino}pyridine-3-carboxamide]
11 | 4 | O[C@@H](CNCc1ccn2nc(-c3ccccn3)nc(Nc3ccncc3F)c12)c1ccccc1 [Example 310, (1R)-2-[({4-[(3-fluoropyridin-4-yl)amino]-2-(pyridin-2-yl)pyrrolo[2,1-f][1,2,4]triazin-5-yl}methyl)amino]-1-phenylethan-1-ol]
12 | 1.6 | Fc1cnccc1Nc1nc(-c2ccccn2)nn2ccc(CN3CCN(c4ncccn4)CC3)c12 [Example 276, 3-fluoro-N-[2-(pyridin-2-yl)-5-{[4-(pyrimidin-2-yl)piperazin-1-yl]methyl}pyrrolo[2,1-f][1,2,4]triazin-4-yl]pyridin-4-amine]
13 | 56 | COc1cccc(-c2nc(Nc3ccncc3F)c3c(C(O)CNCCN4CCS(=O)(=O)CC4)ccn3n2)n1 (centres unmarked) [Example 131, 4-{2-[(2-{4-[(3-fluoropyridin-4-yl)amino]-2-(6-methoxypyridin-2-yl)pyrrolo[2,1-f][1,2,4]triazin-5-yl}-2-hydroxyethyl)amino]ethyl}-1,4-thiomorpholine-1,1-dione]
14 | 49 | COc1cccc(-c2nc(Nc3ccncc3)c3c(Cl)ccn3n2)n1 [Example 91, N-[5-chloro-2-(6-methoxypyridin-2-yl)pyrrolo[2,1-f][1,2,4]triazin-4-yl]pyridin-4-amine]
15 | 5.1 | CC(=O)Nc1nccc(Nc2nc(-c3cccc(C(F)F)n3)nn3cccc23)c1F [Example 229, N-[4-({2-[6-(difluoromethyl)pyridin-2-yl]pyrrolo[2,1-f][1,2,4]triazin-4-yl}amino)-3-fluoropyridin-2-yl]acetamide]
16 | 20 | COc1cccc(-c2nc(Nc3ccncc3N)c3cccn3n2)n1 [Example 95, 4-N-[2-(6-methoxypyridin-2-yl)pyrrolo[2,1-f][1,2,4]triazin-4-yl]pyridine-3,4-diamine]
17 | 0.92 | Fc1cnccc1Nc1nc(-c2cccc(C(F)F)n2)nn2cccc12 [Example 78, N-{2-[6-(difluoromethyl)pyridin-2-yl]pyrrolo[2,1-f][1,2,4]triazin-4-yl}-3-fluoropyridin-4-amine]
18 | 88 | O=C(Nc1cc(Nc2nc(-c3cccc(C(F)(F)F)n3)nn3cccc23)ccn1)[C@@H]1CCCN1 [Example 326, (2S)—N-[4-({2-[6-(trifluoromethyl)pyridin-2-yl]pyrrolo[2,1-f][1,2,4]triazin-4-yl}amino)pyridin-2-yl]pyrrolidine-2-carboxamide]

Row | IC50 [nM] | Structure (SMILES)
19 | 50 | Cc1cccc(-c2nc(Nc3ccncc3C(=O)NCC(C)(C)O)c3cccn3n2)n1 [Example 156, N-(2-hydroxy-2-methylpropyl)-4-{[2-(6-methylpyridin-2-yl)pyrrolo[2,1-f][1,2,4]triazin-4-yl]amino}pyridine-3-carboxamide]
20 | 3300 | COc1cccc(-c2nc(Nc3ccnc(NCC(C)(C)O)c3)c3cccn3n2)n1 [Example 133, 1-[(4-{[2-(6-methoxypyridin-2-yl)pyrrolo[2,1-f][1,2,4]triazin-4-yl]amino}pyridin-2-yl)amino]-2-methylpropan-2-ol]
21 | 5.4 | CN1CCC(CCNCc2ccn3nc(-c4ccccn4)nc(Nc4ccncc4F)c23)CC1 [Example 303, 3-fluoro-N-[5-({[2-(1-methylpiperidin-4-yl)ethyl]amino}methyl)-2-(pyridin-2-yl)pyrrolo[2,1-f][1,2,4]triazin-4-yl]pyridin-4-amine]
22 | 5.1 | CC(=O)Nc1cc(Nc2nc(-c3cccc(C(F)F)n3)nn3cccc23)c(F)cn1 [Example 225, N-[4-({2-[6-(difluoromethyl)pyridin-2-yl]pyrrolo[2,1-f][1,2,4]triazin-4-yl}amino)-5-fluoropyridin-2-yl]acetamide]
23 | 52 | CS(=O)(=O)N(c1cc2c(Nc3ccncc3F)nc(-c3cccc(C(F)(F)F)n3)nn2c1)S(C)(=O)=O [Example 111, N-{4-[(3-fluoropyridin-4-yl)amino]-2-[6-(trifluoromethyl)pyridin-2-yl]pyrrolo[2,1-f][1,2,4]triazin-6-yl}-N-methanesulfonylmethanesulfonamide]
24 | 30 | Cc1nc2ccc(NCc3ccn4nc(-c5ccccn5)nc(Nc5ccncc5F)c34)cc2s1 [Example 295, N-({4-[(3-fluoropyridin-4-yl)amino]-2-(pyridin-2-yl)pyrrolo[2,1-f][1,2,4]triazin-5-yl}methyl)-2-methyl-1,3-benzothiazol-6-amine]
25 | 16 | O=C(NCCCN1CCCC1)c1cnccc1Nc1nc(-c2ccccn2)nn2cccc12 [Example 150]
26 | 68 | Cc1cncc(-c2nc(Nc3ccncc3Cl)c3cccn3n2)n1 [Example 6, 3-chloro-N-[2-(6-methylpyrazin-2-yl)pyrrolo[2,1-f][1,2,4]triazin-4-yl]pyridin-4-amine]
27 | 3.9 | Fc1cnccc1Nc1nc(-c2ccccn2)nn2ccc(CNCCCN3CCOCC3)c12 [Example 246, 3-fluoro-N-[5-({[3-(morpholin-4-yl)propyl]amino}methyl)-2-(pyridin-2-yl)pyrrolo[2,1-f][1,2,4]triazin-4-yl]pyridin-4-amine]
28 | 1600 | COc1cccc(-c2nc(Nc3ccncc3F)c3cc(C(C)(C)O)cn3n2)n1 [Example 39, 2-{4-[(3-fluoropyridin-4-yl)amino]-2-(6-methoxypyridin-2-yl)pyrrolo[2,1-f][1,2,4]triazin-6-yl}propan-2-ol]
29 | 610 | Cn1nccc1-c1nc(Nc2ccncc2F)c2cccn2n1 [Example 10, 3-fluoro-N-[2-(1-methyl-1H-pyrazol-5-yl)pyrrolo[2,1-f][1,2,4]triazin-4-yl]pyridin-4-amine]
30 | 13 | C=CCOc1cnccc1Nc1nc(-c2ccccn2)nn2cccc12 [Example 79, 3-(prop-2-en-1-yloxy)-N-[2-(pyridin-2-yl)pyrrolo[2,1-f][1,2,4]triazin-4-yl]pyridin-4-amine]
31 | 1.6 | CCC[C@@H](CO)NCc1ccn2nc(-c3ccccn3)nc(Nc3ccncc3F)c12 [Example 273, (2S)-2-[({4-[(3-fluoropyridin-4-yl)amino]-2-(pyridin-2-yl)pyrrolo[2,1-f][1,2,4]triazin-5-yl}methyl)amino]pentan-1-ol]
32 | 2.2 | OC1CCC(NCc2ccn3nc(-c4ccccn4)nc(Nc4ccncc4F)c23)CC1 (centres unmarked) [Example 236, 4-[({4-[(3-fluoropyridin-4-yl)amino]-2-(pyridin-2-yl)pyrrolo[2,1-f][1,2,4]triazin-5-yl}methyl)amino]cyclohexan-1-ol]
33 | 3 | COc1cccc(-c2nc(Nc3ccncc3F)c3c(CCO)ccn3n2)n1 [Example 46, 2-{4-[(3-fluoropyridin-4-yl)amino]-2-(6-methoxypyridin-2-yl)pyrrolo[2,1-f][1,2,4]triazin-5-yl}ethan-1-ol]
34 | 140 | O=C(N[C@@H]1CCC[C@@H]1O)c1cnccc1Nc1nc(-c2cccc(C(F)F)n2)nn2cccc12 [Example 198, 4-({2-[6-(difluoromethyl)pyridin-2-yl]pyrrolo[2,1-f][1,2,4]triazin-4-yl}amino)-N-[(1R,2S)-2-hydroxycyclopentyl]pyridine-3-carboxamide]
35 | 4 | COc1cccc(-c2nc(Nc3ccncc3F)c3cccn3n2)n1 [Example 58, 3-fluoro-N-[2-(6-methoxypyridin-2-yl)pyrrolo[2,1-f][1,2,4]triazin-4-yl]pyridin-4-amine]
